According to ChEMBL document CHEMBL1136094, “Novel, potent and selective cyclin D1/CDK4 inhibitors: indolo[6,7-a]pyrrolo[3,4-c]carbazoles” (Bioorg Med Chem Lett, 2003):
Values joined by “and” are separate entries in the source; they are usually repeats but may differ in a detail not shown here. Equal entries are not always repeated.

Tests used:
CaM kinase II = CaM kinase II (Homo sapiens, UniProt Q13557+Q13555+Q13554+Q9UQM7); assay: Inhibitory activity against Calcium/calmodulin-dependent protein kinase type II; type: protein assay
[1] = target: Cyclin-dependent kinase 2/cyclin E (Homo sapiens, UniProt P24941); assay: Inhibitory activity against Cyclin E-cyclin-dependent kinase 2 in enzymatic assay by measuring phosphorylation of RbING; type: protein-complex assay
[2] = target: T1, Cyclin-dependent kinase 4/cyclin D1 (Homo sapiens, UniProt P11802); assay: Inhibitory activity against Cyclin D1-cyclin-dependent kinase 4 in enzymatic assay by measuring phosphorylation of Rb21; type: protein-complex assay
[3] = target: T1, Cyclin-dependent kinase 4/cyclin D1; assay: Inhibitory activity against Cyclin D1-cyclin-dependent kinase 4 in enzymatic assay by measuring phosphorylation of RbING; type: protein-complex assay
HCT-116 [4] = assay: In vitro antiproliferative activity against human carcinoma cell line HCT116 (colon); type: functional, cell-based
NCI-H460 = assay: In vitro antiproliferative activity against human carcinoma cell line H460 (lung); type: functional, cell-based
[5] = target: cAMP-dependent protein kinase (PKA) (Homo sapiens, UniProt P22694+P17612+P22612); assay: Inhibitory activity against Protein kinase A (Histone); type: protein assay
HCT-116 [6] = assay: GI arrest (1 fold increase over control) in HCT116 cells was determined by flow cytometry after 24 hr incubation; type: functional, Homo sapiens
[7] = target: Cyclin-dependent kinase 4 (Homo sapiens) (UniProt P11802); assay: Inhibition of Rb phosphorylation at the CDK4 specific Ser780 residue (1 fold increase over control) after 24 hr incubation in HCT116 cells; type: functional, cell-based; conditions: HCT-116, concentration not given here
[8] = target: Cyclin-dependent kinase 4 (Homo sapiens) (UniProt P11802); assay: Inhibition of Rb phosphorylation at the CDK4 specific Ser780 residue (3 fold increase over control) after 24 hr incubation in HCT116 cells; type: functional, cell-based; conditions: HCT-116, concentration not given here

Chain of Cyclin-dependent kinase 4 (Homo sapiens) (P11802 whole entry): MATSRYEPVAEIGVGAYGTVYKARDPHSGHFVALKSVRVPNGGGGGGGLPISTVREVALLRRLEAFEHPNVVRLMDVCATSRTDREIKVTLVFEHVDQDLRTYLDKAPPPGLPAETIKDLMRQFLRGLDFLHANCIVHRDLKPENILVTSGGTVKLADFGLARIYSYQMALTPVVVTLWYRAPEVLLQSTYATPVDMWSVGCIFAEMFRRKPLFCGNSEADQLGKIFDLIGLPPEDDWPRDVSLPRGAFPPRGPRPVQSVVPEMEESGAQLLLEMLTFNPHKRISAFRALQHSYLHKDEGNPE
T1 sequence (P11802 whole entry): as above
T1 sequence (P24385 whole entry, further chain): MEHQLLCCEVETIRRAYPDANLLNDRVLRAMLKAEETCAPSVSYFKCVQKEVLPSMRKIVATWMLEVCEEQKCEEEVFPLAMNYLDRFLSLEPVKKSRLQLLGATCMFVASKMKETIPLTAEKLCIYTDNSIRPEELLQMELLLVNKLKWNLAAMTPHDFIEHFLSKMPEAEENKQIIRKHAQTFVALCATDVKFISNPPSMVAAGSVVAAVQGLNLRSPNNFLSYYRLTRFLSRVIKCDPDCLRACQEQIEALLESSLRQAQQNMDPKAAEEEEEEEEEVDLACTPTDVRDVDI

COc1ccc2c3c4c(c5c(ccc6ccn(C)c65)c3n(CCN3CCCCC3)c2c1)C(=O)NC4=O
IC50 (CaM kinase II): > 20000 nM
IC50 [1]: 928 nM
IC50 [2]: 33 nM
IC50 [3]: 135 nM
IC50 (HCT-116 [4]): 3740 nM
IC50 (NCI-H460): 2470 nM
IC50 [5]: > 20000 nM

Cn1ccc2ccc3c4[nH]c5c(CCN6CCC(O)CC6)cccc5c4c4c(c3c21)C(=O)NC4=O.O=C(O)C(F)(F)F
Fold increase (HCT-116 [6]): 1.8

Cn1ccc2ccc3c4[nH]c5c(CCN6CCC[C@H]6CO)cccc5c4c4c(c3c21)C(=O)NC4=O.O=C(O)C(F)(F)F
Fold increase (HCT-116 [6]): 1.5

Cn1ccc2ccc3c4[nH]c5c(CCN6CCC(O)CC6)cccc5c4c4c(c3c21)C(=O)NC4=O [listing 1 of 2 here]
IC50 (CaM kinase II): 46 nM
IC50 [1]: 978 nM
IC50 [2]: 8 nM
IC50 [3]: 45 nM
IC50 (HCT-116 [4]): 200 nM
IC50 (NCI-H460): 140 nM
IC50 [5]: 2990 nM

Cn1ccc2ccc3c4[nH]c5c(CCN6CCOCC6)cccc5c4c4c(c3c21)C(=O)NC4=O
inhibition [7]: 57% and 69%
inhibition [8]: 88% and 80%

Cn1ccc2ccc3c4[nH]c5c(CCN6CCC[C@H]6CO)cccc5c4c4c(c3c21)C(=O)NC4=O [listing 1 of 2 here]
IC50 (CaM kinase II): 90 nM
IC50 [1]: 685 nM
IC50 [2]: 23 nM
IC50 [3]: 39 nM
IC50 (HCT-116 [4]): 420 nM
IC50 (NCI-H460): 210 nM
IC50 [5]: 4580 nM

CCN(CC)CCCc1cccc2c1[nH]c1c3ccc4ccn(C)c4c3c3c(c21)C(=O)NC3=O
IC50 (CaM kinase II): 174 nM
IC50 [1]: 1500 nM
IC50 [2]: 24 nM
IC50 [3]: 34 nM
IC50 (HCT-116 [4]): 950 nM
IC50 (NCI-H460): 370 nM
IC50 [5]: 14100 nM

Cn1ccc2ccc3c4[nH]c5c(CCN6CCSCC6)cccc5c4c4c(c3c21)C(=O)NC4=O
IC50 (CaM kinase II): 403 nM
IC50 [1]: 1800 nM
IC50 [2]: 24 nM
IC50 [3]: 82 nM
IC50 (HCT-116 [4]): 3410 nM
IC50 (NCI-H460): 3410 nM
IC50 [5]: > 20000 nM

Cn1ccc2ccc3c4[nH]c5cc(O)ccc5c4c4c(c3c21)C(=O)NC4=O
IC50 [2]: 9 nM
IC50 [3]: 33 nM
Fold increase (HCT-116 [6]): 2.2
IC50 (HCT-116 [4]): 670 nM
inhibition [7]: 37%
inhibition [8]: 95%
IC50 (NCI-H460): 1080 nM
IC50 [5]: 2350 nM

COc1ccc2c3c4c(c5c(ccc6ccn(C)c65)c3n(CCCN3CCSCC3)c2c1)C(=O)NC4=O
IC50 (CaM kinase II): > 20000 nM
IC50 [1]: 1260 nM
IC50 [2]: 47 nM
IC50 [3]: 190 nM
IC50 (HCT-116 [4]): 2020 nM
IC50 (NCI-H460): 2110 nM
IC50 [5]: > 20000 nM

COc1ccc2c3c4c(c5c(ccc6ccn(C)c65)c3n(CCN3CCC[C@H]3CO)c2c1)C(=O)NC4=O
IC50 (CaM kinase II): 6120 nM
IC50 [1]: 942 nM
IC50 [2]: 23 nM
IC50 [3]: 84 nM
IC50 (HCT-116 [4]): 2690 nM
IC50 (NCI-H460): 3800 nM
IC50 [5]: > 20000 nM

Cn1ccc2ccc3c4[nH]c5c(CCN6CCC[C@H]6CO)cccc5c4c4c(c3c21)C(=O)NC4=O [listing 2 of 2 here]
inhibition [7]: 65%
inhibition [8]: 73%

COc1ccc2c3c4c(c5c(ccc6ccn(C)c65)c3n(CCCN3CCC(O)CC3)c2c1)C(=O)NC4=O
IC50 (CaM kinase II): 3130 nM
IC50 [1]: 2100 nM
IC50 [2]: 4 nM
IC50 [3]: 48 nM
IC50 (HCT-116 [4]): 1260 nM
IC50 (NCI-H460): 1130 nM
IC50 [5]: 2810 nM

Cn1ccc2ccc3c4[nH]c5c(CCN6CCNCC6)cccc5c4c4c(c3c21)C(=O)NC4=O
IC50 (CaM kinase II): 301 nM
IC50 [1]: 2030 nM
IC50 [2]: 15 nM
IC50 [3]: 49 nM
IC50 (HCT-116 [4]): 1040 nM
IC50 (NCI-H460): 1110 nM
IC50 [5]: 12900 nM

COC(=O)C1CCN(CCc2cccc3c2[nH]c2c4ccc5ccn(C)c5c4c4c(c32)C(=O)NC4=O)CC1
IC50 (CaM kinase II): 81 nM
IC50 [1]: 972 nM
IC50 [2]: 13 nM
IC50 [3]: 47 nM
IC50 (HCT-116 [4]): > 10000 nM
IC50 (NCI-H460): > 10000 nM
IC50 [5]: > 20000 nM

Cn1ccc2ccc3c4[nH]c5c(CCN6CCC(O)CC6)cccc5c4c4c(c3c21)C(=O)NC4=O [listing 2 of 2 here]
inhibition [7]: 68%
inhibition [8]: 69%

Cn1ccc2ccc3c4[nH]c5c(CCNCCO)cccc5c4c4c(c3c21)C(=O)NC4=O
IC50 (CaM kinase II): 95 nM
IC50 [1]: 265 nM
IC50 [2]: 10 nM
IC50 [3]: 33 nM
IC50 (HCT-116 [4]): 170 nM
IC50 (NCI-H460): 330 nM
IC50 [5]: 6120 nM
